# From patent US9173884B2, “Inhibitors of phosphodiesterase 11 (PDE11)” (TRUSTEES OF BOSTON COLLEGE, priority 2011, dated 2015)
# Tests used:
# H295R cells [1] = assay: cAMP assay in H295R adrenocortical cells; format: cell-based, human; conditions: 20 μM, 2 h, absence or presence of 10 μM forskolin
# Procedure: (§1) Human NCI-H295R cells were maintained as described (33). HeLa cells were maintained in DMEM with 10% FBS. 90% confluent cells in 12-well dishes were incubated in serum-starved media for 1 h, then in 0.5 ml serum-starved media with 20 µM compounds or 0.2% DMSO for 2 h in the absence or presence of 10 μM forskolin (Sigma Aldrich). Media was collected and cAMP levels were measured as described (33), using a cAMP ELISA kit (Enzo). cAMP levels were normalized to protein content measured using a BCA Protein Assay Kit (Pierce). Immunoblot analysis of protein lysates was performed as described (34), using phospho-CREB(9198), Akt(4685), or CREB(9197) primary antibodies (Cell Signaling Technology) and goat anti-rabbit IgG-HRP secondary antibody (sc-2030, Santa Cruz).
# H295R cells [2] = assay: Cortisol assay in H295R cells; format: cell-based, human; conditions: 20 μM, 24 h, forskolin
# Procedure: H295R cells were treated with compounds as described in the cAMP assays, for 24 h. Media was collected and cortisol content was quantified using a Cortisol EIA Kit (Oxford Biomedical Research). Cortisol levels were normalized to protein concentrations in cell extracts, as described above.
# [3] = tested on: chronic lymphocytic leukemia cells from a first leukemia patient; assay: Apoptosis of chronic lymphocytic leukemia cells, first patient; format: cell-based, human; parameters: % apoptosis: dose or concentration left out as unconfirmed; conditions: for effect on apoptosis, in words: first patient, high background apoptosis
# Source text: (§2) In collaboration with other researchers, the effect of different PDE inhibitors on chronic lymphocytic leukemia cells was investigated. The lymphocytic leukemia cells were obtained from individual patients and cannot be maintained in cell culture.
# [4] = tested on: chronic lymphocytic leukemia cells from a second leukemia patient; assay: Apoptosis of chronic lymphocytic leukemia cells, second patient (JM168); format: cell-based, human
# Source text: as §2
# normal T cells = assay: Apoptosis of normal T cells; format: cell-based; conditions: for cell viability of normal T cells: with or without rolipram
# JVM-2 cells = assay: Apoptosis of JVM-2 B cell leukemia cell line; format: cell-based; conditions: for effect on apoptosis, in words: JVM-2
# REC-1 cells = assay: Apoptosis of REC-1 B cell leukemia cell line; format: cell-based; conditions: for effect on apoptosis, in words: REC-1
# [5] = tested on: chronic lymphocytic leukemia cells from a third leukemia patient; assay: Apoptosis of chronic lymphocytic leukemia cells, third patient (JM167); format: cell-based, human
# Source text: as §2
# human PDE11A4 = human PDE11A4 (Homo sapiens (Human), UniProt Q9HCR9); assay: biochemical
# human PDE11A4, sequence (Q9HCR9 whole entry): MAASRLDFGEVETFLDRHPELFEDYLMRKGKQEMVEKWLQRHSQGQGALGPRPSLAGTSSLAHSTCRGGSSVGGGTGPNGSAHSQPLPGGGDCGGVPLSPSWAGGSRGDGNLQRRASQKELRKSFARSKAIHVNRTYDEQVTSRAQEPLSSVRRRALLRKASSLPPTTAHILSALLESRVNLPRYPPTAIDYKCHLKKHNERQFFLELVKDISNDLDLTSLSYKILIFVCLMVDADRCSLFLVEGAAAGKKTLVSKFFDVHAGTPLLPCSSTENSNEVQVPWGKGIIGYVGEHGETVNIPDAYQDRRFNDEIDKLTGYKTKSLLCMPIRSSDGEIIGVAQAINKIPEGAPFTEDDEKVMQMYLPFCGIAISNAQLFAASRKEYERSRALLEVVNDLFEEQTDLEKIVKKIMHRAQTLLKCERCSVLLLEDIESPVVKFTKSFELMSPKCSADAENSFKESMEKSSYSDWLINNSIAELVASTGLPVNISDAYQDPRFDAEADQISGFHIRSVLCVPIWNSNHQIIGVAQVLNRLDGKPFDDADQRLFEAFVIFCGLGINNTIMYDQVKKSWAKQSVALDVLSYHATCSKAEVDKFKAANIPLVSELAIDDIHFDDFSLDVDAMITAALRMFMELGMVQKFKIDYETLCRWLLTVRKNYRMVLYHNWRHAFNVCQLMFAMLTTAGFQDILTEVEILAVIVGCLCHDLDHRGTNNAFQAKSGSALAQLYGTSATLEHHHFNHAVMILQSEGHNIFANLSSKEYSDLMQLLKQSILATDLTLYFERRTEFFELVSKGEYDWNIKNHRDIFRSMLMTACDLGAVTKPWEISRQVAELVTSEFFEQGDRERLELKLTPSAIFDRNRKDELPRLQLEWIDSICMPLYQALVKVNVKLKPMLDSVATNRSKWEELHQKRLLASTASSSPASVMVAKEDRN
# PDE10A1 [6] = target: T1, PDE10A1 (Homo sapiens (Human), UniProt Q9Y233); assay: biochemical
# T1 sequence (Q9Y233 other isoform, or with tags, fused parts or gaps): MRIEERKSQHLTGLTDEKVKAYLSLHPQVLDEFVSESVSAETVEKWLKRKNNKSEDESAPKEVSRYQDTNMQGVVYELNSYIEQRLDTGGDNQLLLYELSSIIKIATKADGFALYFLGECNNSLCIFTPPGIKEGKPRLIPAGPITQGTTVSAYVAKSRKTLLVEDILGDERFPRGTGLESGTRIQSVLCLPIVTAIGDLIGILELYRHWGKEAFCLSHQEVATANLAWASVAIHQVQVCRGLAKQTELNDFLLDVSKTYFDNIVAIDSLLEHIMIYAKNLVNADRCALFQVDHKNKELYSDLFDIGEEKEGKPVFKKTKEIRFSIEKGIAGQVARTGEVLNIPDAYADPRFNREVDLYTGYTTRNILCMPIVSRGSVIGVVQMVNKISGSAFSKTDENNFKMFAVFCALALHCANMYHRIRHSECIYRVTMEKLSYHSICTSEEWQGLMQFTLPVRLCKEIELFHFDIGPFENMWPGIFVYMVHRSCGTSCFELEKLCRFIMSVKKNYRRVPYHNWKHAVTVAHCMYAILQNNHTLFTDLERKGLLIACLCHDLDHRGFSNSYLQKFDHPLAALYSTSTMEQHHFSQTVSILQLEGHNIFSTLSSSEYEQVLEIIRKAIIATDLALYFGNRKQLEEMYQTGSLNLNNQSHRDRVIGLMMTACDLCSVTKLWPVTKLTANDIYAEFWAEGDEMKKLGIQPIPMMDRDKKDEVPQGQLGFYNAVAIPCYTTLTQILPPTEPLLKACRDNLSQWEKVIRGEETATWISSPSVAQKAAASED
# PDE5A1 = PDE5A1 (Homo sapiens (Human), UniProt O76074); assay: In vitro enzyme assay, PDE5; format: biochemical; conditions: PDE5A, 500 nM cGMP
# PDE6C = PDE6C (Homo sapiens (Human), UniProt P51160); assay: In vitro enzyme assay, PDE6; format: biochemical; conditions: […] cGMP
# PDE6C, sequence (P51160 whole entry): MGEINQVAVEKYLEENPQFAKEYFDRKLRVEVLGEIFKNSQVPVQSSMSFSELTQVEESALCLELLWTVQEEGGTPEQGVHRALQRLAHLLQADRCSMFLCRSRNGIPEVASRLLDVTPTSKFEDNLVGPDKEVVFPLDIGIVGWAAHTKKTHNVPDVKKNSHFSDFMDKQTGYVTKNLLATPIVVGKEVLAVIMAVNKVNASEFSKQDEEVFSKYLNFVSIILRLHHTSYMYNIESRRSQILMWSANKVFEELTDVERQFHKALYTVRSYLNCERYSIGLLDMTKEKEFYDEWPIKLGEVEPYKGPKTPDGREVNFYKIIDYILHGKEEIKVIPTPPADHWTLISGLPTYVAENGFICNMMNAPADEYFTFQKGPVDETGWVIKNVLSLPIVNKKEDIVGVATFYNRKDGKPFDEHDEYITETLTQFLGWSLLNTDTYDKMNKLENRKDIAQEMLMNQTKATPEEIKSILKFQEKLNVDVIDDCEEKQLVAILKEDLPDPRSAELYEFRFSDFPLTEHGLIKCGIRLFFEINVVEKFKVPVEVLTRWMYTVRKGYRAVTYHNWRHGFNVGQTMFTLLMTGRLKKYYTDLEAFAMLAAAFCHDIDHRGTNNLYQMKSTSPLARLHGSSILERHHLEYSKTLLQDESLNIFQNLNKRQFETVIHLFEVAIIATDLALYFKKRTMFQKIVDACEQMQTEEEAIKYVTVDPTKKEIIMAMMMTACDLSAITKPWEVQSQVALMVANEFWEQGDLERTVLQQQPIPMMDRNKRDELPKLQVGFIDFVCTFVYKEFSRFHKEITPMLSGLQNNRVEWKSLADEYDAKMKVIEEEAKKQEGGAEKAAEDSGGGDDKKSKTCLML
# PDE7A = PDE7A (Homo sapiens (Human), UniProt Q13946); assay: In vitro enzyme assay, PDE7; format: biochemical; conditions: 15 nM cAMP
# PDE7A, sequence (Q13946 whole entry): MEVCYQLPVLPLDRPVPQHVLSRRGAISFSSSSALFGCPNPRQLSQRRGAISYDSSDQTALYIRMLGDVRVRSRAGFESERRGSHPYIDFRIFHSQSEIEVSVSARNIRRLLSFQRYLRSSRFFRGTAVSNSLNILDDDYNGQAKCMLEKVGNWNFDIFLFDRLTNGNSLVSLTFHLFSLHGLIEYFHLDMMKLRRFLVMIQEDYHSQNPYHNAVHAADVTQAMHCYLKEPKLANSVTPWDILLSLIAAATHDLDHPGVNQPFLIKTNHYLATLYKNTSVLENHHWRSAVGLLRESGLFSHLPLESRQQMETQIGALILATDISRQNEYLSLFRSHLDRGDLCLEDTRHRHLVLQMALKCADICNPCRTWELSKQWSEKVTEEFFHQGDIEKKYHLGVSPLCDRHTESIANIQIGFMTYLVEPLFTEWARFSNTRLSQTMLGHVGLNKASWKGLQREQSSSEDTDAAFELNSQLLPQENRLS
# PDE10A1 [7] = target: T1, PDE10A1; assay: In vitro enzyme assay, PDE10; conditions: read-out: IC50 PDE10; PDE10A, 30 nM cAMP
# H295R cells [8] = assay: ATF-1 phosphorylation immunoblot in H295R cells; format: cell-based, human
# Procedure: as §1
# HeLa cells [9] = assay: cAMP assay in HeLa cells; format: cell-based; conditions: as for H295R cells (20 μM)
# Procedure: as §1
# HeLa cells [10] = assay: CREB phosphorylation immunoblot in HeLa cells; format: cell-based; conditions: as for H295R cells (20 μM)
# Procedure: as §1
# [11] = compound 20 μM plus Rolipram (20 μM)
smiles,measurement,setting,value
O=c1nc2sc3ccccc3n2c(=O)n1-c1ccccc1 [BC11-19],cAMP levels in H295R cells,H295R cells [1],consistently elevates
same,cortisol production by H295R cells,H295R cells [2],consistently elevates
Cn1c(NC(=O)c2ccccc2NC(=O)c2ccccc2)nc2ccccc21 [BC11-4],% apoptosis,[3]; compound,66.9%
same,% apoptosis,[3]; compound alone (DMSO),70.1%
same,"effect on apoptosis, in words",[3],increase in apoptosis
same,% apoptosis,"[4]; BC11-4 0.1 μM, Roli 0 μM",6.65%
same,% apoptosis,"[4]; BC11-4 0.1 μM, Roli 0.2 μM",10.4%
same,% apoptosis,"[4]; BC11-4 0.1 μM, Roli 2.0 μM",21.2%
same,% apoptosis,"[4]; BC11-4 0.1 μM, Roli 20 μM",28.8%
same,% apoptosis,"[4]; BC11-4 1.0 μM, Roli 0 μM",4.71%
same,% apoptosis,"[4]; BC11-4 1.0 μM, Roli 0.2 μM",10.8%
same,% apoptosis,"[4]; BC11-4 1.0 μM, Roli 2.0 μM",20.8%
same,% apoptosis,"[4]; BC11-4 1.0 μM, Roli 20 μM",29.6%
same,% apoptosis,"[4]; BC11-4 10.0 μM, Roli 0 μM",5.78%
same,% apoptosis,"[4]; BC11-4 10.0 μM, Roli 0.2 μM",4.93%
same,% apoptosis,"[4]; BC11-4 10.0 μM, Roli 2.0 μM",6.72%
same,% apoptosis,"[4]; BC11-4 10.0 μM, Roli 20 μM",15.8%
same,"response of cells (apoptosis), in words",[4]; second patient,did not respond
same,% apoptosis of normal T cells,normal T cells; compound 20 μM alone (DMSO),14.3%
same,% apoptosis of normal T cells,normal T cells; [11],13.9%
same,cell viability of normal T cells,normal T cells,did not affect cell viability
same,Apoptosis (%) JVM-2 Cells (B cell leukemia),JVM-2 cells; 40 μM,32.3%
same,"effect on apoptosis, in words",JVM-2 cells,increased apoptosis
same,Apoptosis (%) REC-1 Cells (B cell leukemia),REC-1 cells; 40 μM,100%
same,"effect on apoptosis, in words",REC-1 cells,increased apoptosis
C=CCSc1nnc2n(-c3ccccc3)c(=O)c3c(C)c(C)sc3n12 [BC11-8],% apoptosis,[3]; compound,63.3%
same,% apoptosis,[3]; compound alone (DMSO),60.1%
same,"effect on apoptosis, in words",[3],increase in apoptosis
same,% apoptosis,"[5]; BC11-8 0.1 μM, Roli 0 μM",6.31%
same,% apoptosis,"[5]; BC11-8 0.1 μM, Roli 0.2 μM",11.7%
same,% apoptosis,"[5]; BC11-8 0.1 μM, Roli 2.0 μM",22.7%
same,% apoptosis,"[5]; BC11-8 0.1 μM, Roli 20 μM",28.2%
same,% apoptosis,"[5]; BC11-8 1.0 μM, Roli 0 μM",7.63%
same,% apoptosis,"[5]; BC11-8 1.0 μM, Roli 0.2 μM",13.1%
same,% apoptosis,"[5]; BC11-8 1.0 μM, Roli 2.0 μM",19.5%
same,% apoptosis,"[5]; BC11-8 1.0 μM, Roli 20 μM",26.7%
same,% apoptosis,"[5]; BC11-8 10.0 μM, Roli 0 μM",21.8%
same,% apoptosis,"[5]; BC11-8 10.0 μM, Roli 0.2 μM",28.5%
same,% apoptosis,"[5]; BC11-8 10.0 μM, Roli 2.0 μM",40.1%
same,% apoptosis,"[5]; BC11-8 10.0 μM, Roli 20 μM",41.5%
same,"effect on apoptosis, in words","[5]; third patient, additive with rolipram",increased apoptosis
same,% apoptosis of normal T cells,normal T cells; compound 20 μM alone (DMSO),10.3%
same,% apoptosis of normal T cells,normal T cells; [11],14.7%
same,cell viability of normal T cells,normal T cells,did not affect cell viability
same,Apoptosis (%) JVM-2 Cells (B cell leukemia),JVM-2 cells; 40 μM,28.8%
same,"effect on apoptosis, in words",JVM-2 cells,increased apoptosis
same,Apoptosis (%) REC-1 Cells (B cell leukemia),REC-1 cells; 40 μM,66.2%
same,"effect on apoptosis, in words",REC-1 cells,increased apoptosis
same,IC50,human PDE11A4,0.05 µM
same,IC50,PDE10A1 [6],0.2 µM
CCN(CC)C(=O)c1cc(-c2cccs2)nc2c1c(C)nn2-c1ccccc1C [BC11-15],IC50,PDE5A1,43 µM
same,IC50,PDE6C,25 µM
same,IC50,PDE7A,43 µM
same,IC50,PDE10A1 [7],35 µM
CCCSc1nc2c(c(=O)n1-c1ccccc1)SCC2 [BC11-38],cAMP levels in H295R cells,H295R cells [1],significantly increased
same,cortisol production by H295R cells,H295R cells [2],significantly increased
same,phosphorylation of ATF1,H295R cells [8],PDE11A-specific increase
same,cAMP levels in HeLa cells,HeLa cells [9],do not increase
same,CREB phosphorylation in HeLa cells,HeLa cells [10],do not increase
"COc1ccc(C2CNC(=O)C2)cc1OC1CCCC1 (stereo not drawn) [Rolipram, rolipram, reference compound]",% apoptosis,[3]; compound alone (DMSO),46.7%
same,"effect on apoptosis, in words",[3],not affected
same,% apoptosis,"[4]; Roli 0.2 μM, BC11-4 0 μM",12.7%
same,% apoptosis,"[4]; Roli 2.0 μM, BC11-4 0 μM",24.9%
same,% apoptosis,"[4]; Roli 20 μM, BC11-4 0 μM",33.8%
same,% apoptosis,"[5]; Roli 0.2 μM, BC11-8 0 μM",13.2%
same,% apoptosis,"[5]; Roli 2.0 μM, BC11-8 0 μM",23.5%
same,% apoptosis,"[5]; Roli 20 μM, BC11-8 0 μM",29.9%
same,% apoptosis of normal T cells,normal T cells; compound 20 μM alone (DMSO),9.4%
same,Apoptosis (%) JVM-2 Cells (B cell leukemia),JVM-2 cells; 20 μM,18.5%
same,"effect on apoptosis, in words",JVM-2 cells,not affected
same,Apoptosis (%) REC-1 Cells (B cell leukemia),REC-1 cells; 20 μM,56.7%
same,"effect on apoptosis, in words",REC-1 cells,not affected
